Measured values reported in patent US20070110813A1, “Polycation-polyanion complexes, compositions and methods of use thereof” (priority 2005, published 2007).
“Also recorded” adds a separate entry of the source. Where two headings read alike, the source gives them in different places.

Key:
sheep lungs = assay type: in vivo
Method: Polylysine was delivered to 12 pulmonary subsegments via a bronchoscope in a fibrin gel matrix at 100 mg, 30 mg and 10 mg per subsegment (groups 1, 2 and 3 in FIG. 1). The molecular weight of the polylysine used was 20,000-80,000 Da with an average molecular weight of 55,000 Da. A total of 10 sheep were thus treated.
The characteristic lesion caused by polylysine is renal infarction, consistent with what has been reported in the literature for polycationic injury. In the animals tested with baseline normal renal function, renal damage resulting from cationic injury remains subclinical. […] Thus, these clinical pathology tests were not sufficiently sensitive to detect polycationic renal injury resulting from polylysine. Polycationic renal toxicity following pulmonary treatment is initiated and can be detected only at necropsy within days of treatment. […] The characteristic acute lesion appeared to be renal infarction with associated hemorrhage. Lesions occurred within days (3-7 days) of cationic exposure. Necropsy findings are the most sensitive markers of toxicity.
4 sheep were treated at 12 pulmonary subsegments each with a fibrin gel containing 100 mg chondroitin sulfate (Group 5 in FIG. 1). 2 animals were sacrificed at 8 days and the remaining 2 animals were sacrificed at 4 weeks. […] However, pulmonary responses in these animals were minimal, indicating poor efficacy.
In a series of 4 sheep experiments (Group 6 in FIG. 1), in-situ precipitation of chondroitin sulfate and polylysine solutions was achieved as they exit a dual lumen catheter. Chondroitin sulfate was added to a fibrinogen solution to a final concentration of 20 mg/mL, while polylysine was added to a thrombin solution to a final concentration of 20 mg/mL. Both solutions were 5 mL and were injected through a dual lumen catheter into subsegments of sheep lungs for a total of 10 mL per subsegment.
In a total of 4 sheep (Group 7 in FIG. 1), use of systemic heparin to complex polylysine in the circulation and reduce or prevent renal toxicity was attempted.
Using this precipitation methodology, polylysine related renal toxicity was prevented over a broad polylysine concentration range from 1 mg/mL to 10 mg/mL at chondroitin sulfate concentration of 1 to 5 mg/mL (Groups 9 to 13 in FIG. 1).
Lung volume reduction treatment was performed in 8 consecutive animals at 84 subseguential sites using a formulation containing 13 mg/mL of human fibrinogen, 5 mg/mL of sodium chondroitin sulfate, 5 mg/mL of poly-L-lysine, and polymerized in situ with 1000 U activated human thrombin (Group 13 in FIG. 1).

rats = experiment: Lung volume reduction in rats, fibrin gel, lungs and kidneys evaluated after 1 week; assay type: in vivo; conditions: 200 U/mL thrombin
Method: (§1) Three rats were treated with 5 mg/mL poly(Lys, Glu) to evaluate whether the copolymer could be used to modulate local and/or systemic toxicity. Treatments contained 28.6 mg/mL fibrinogen polymerized with 200 U/mL thrombin. All rats were anesthetized and intubated orotracheally. A dual lumen catheter was placed into a target site in the lung with bronchoscopic guidance. The reagents were injected into the lung and the catheter was removed. Each animal was allowed to recover from anesthesia, and returned to its cage. After 1 week, all animals were euthanized. The extent of pleural scarring was assessed prior to lung removal from the chest cavity. The lungs were then removed en bloc, fully inflated, and evaluated visually to assess the extent of local parenchymal inflammation and scarring produced by treatment. The kidneys were also harvested and evaluated for the presence of cortical lesions and infarctions which can develop as a consequence of systemic toxicity following polycation adminstration.
as §1, with “4” for “Three”, “2.5” for “5”, “polyomithine and 3 were treated with 2.5 mg/mL polyomithine precipitated with 2.5 mg/mL chondroitin sulfate” for “poly(Lys, Glu)”, “precipitation” for “the copolymer”, “administration.” for “adminstration.”

[1] = 5 mg/mL poly(Lys, Glu) in 28.6 mg/mL fibrinogen
[2] = 100 mg/treatment in fibrin gel, 12 pulmonary subsegments (group 1)
[3] = 10 and 30 mg/treatment in fibrin gel (groups 2 and 3)
[4] = 2.5 mg/mL polyornithine in 28.6 mg/mL fibrinogen

Q: Which pulmonary responses (sheep lungs; fibrin gel containing 100 mg chondroitin sulfate, 12 subsegments (Group 5)) does the source give for chondroitin sulfate here?
A: minimal

Q: Which “prevention of polylysine renal lesions” value (sheep lungs; systemic heparin to complex polylysine in the circulation, 4 sheep (Group 7)) does the source give for heparin here?
A: did not prevent renal lesions

Q: Which “local pulmonary lesions / efficacy as lung volume reduction agent” value (rats; [1]) does the source give for poly(Lys, Glu) [copolymer] here?
A: no significant local pulmonary lesions; also recorded: failed to demonstrate efficacy

Q: And the “systemic toxicity, manifest as renal lesions” value (rats; [1])?
A: no incidence of systemic toxicity; also recorded: did not show any systemic toxicity

Q: Which lung injury (sheep lungs; [2]) does the source give for poly-L-lysine [polylysine] here?
A: severe lung injury

Q: And the renal toxicity (sheep lungs; [2])?
A: renal toxicity manifest as nephropathy and infarction

Q: What about the pulmonary responses (sheep lungs; [3]) of the same substance?
A: acceptable pulmonary responses

Q: What about the renal toxicity (sheep lungs; [3]) of the same substance?
A: associated with renal toxicity

Q: And the “serum BUN or creatinine, urine analysis, urine protein-to-creatinine ratio” value (sheep lungs; animals with renal lesions at necropsy)?
A: No abnormalities

Q: And the “time of occurrence of renal lesions after cationic exposure” value (sheep lungs; renal infarction with associated hemorrhage)?
A: 3 to 7 days

Q: What does the source list for polyornithine?
A: local toxicity (rats; [4]): significant local toxicity; systemic toxicity (rats; [4]): systemic toxicity, manifest as renal lesions
